Experimental data as given in publication PMC4377892, “Gastroprotective Efficacy and Safety Evaluation of Scoparone Derivatives on Experimentally Induced Gastric Lesions in Rodents” (Nutrients, 2015).
Blank lines part the entries; values can stand above or below the compound they belong to.

Assays:
[1] = system: HCl/ethanol-induced gastric ulcers; experiment: HCl/ethanol-induced gastritis in rats; format: in vivo, Sprague-Dawley (S.D.) rats; settings: HCl/ethanol-induced GU; for ED50: Rattus norvegicus, oral, dose-response, rats, read-out: ED50 (50% protection against GU)
Description: The male S.D. rats were fasted for 24 h prior to oral dosing with the normal saline (vehicle), rebamipide (a positive control), or test compounds (Figure 1) at a range of doses, which are described in the results. One hour after the treatments, all animals orally received 0.5 mL of a mixture of 0.15 M HCl and 60% ethanol solution. Animals were sacrificed by cervical dislocation 3 h after the administration of HCl/ethanol solution, the stomach was removed and fixed in 4% formalin solution for 1 h, opened along the greater curvature, and photographed using a camera attached to a dissection microscope. Total area (mm^2) of mucosal erosive lesion was measured using Photoshop CS4 Extended (Adobe, San Jose, CA, USA) software. The percentage of ulcer inhibition by test compounds was calculated by the following formula: % protection of ulceration = ((%Uarea vehicle treated ulcer control–%Uarea compound treated)/%Uarea vehicle treated ulcer control) × 100(1) where %Uarea is the percent ulcer area of the total gastric mucosa area. ED50 values (50% protection against GU) were calculated from the dose-response curves of logarithmic plots of each test compound.

[2] = system: indomethacin-induced gastric ulcers; experiment: Indomethacin-induced gastritis in rats; format: in vivo, Sprague-Dawley (S.D.) rats; settings: for gastroprotective activity (in words): oral 40 mg/kg, indomethacin-induced GU, rats; for GU reversal: stated for both HCl/ethanol- and indomethacin-induced GU
Description: The male S.D. rats were fasted for 24 h prior to oral dosing with normal saline, rebamipide, or test compounds at a dose of 40 mg/kg body weight. One hour after treatment, all animals orally received 0.5 mL indomethacin solution (80 mg/kg body weight, suspended in 5% sodium bicarbonate). Animals were sacrificed by cervical dislocation 6 h after the administration of indomethacin solution, the stomach was removed and fixed in 2% formalin solution for 30 min, opened along the greater curvature, and photographed using a camera attached to a dissection microscope. Total area (mm^2) of mucosal erosive lesion was measured and the % protection was calculated as described above.

CYP3A4 = CYP3A4 (Homo sapiens, UniProt P08684); experiment: in vitro; settings: recombinant enzyme
CYP3A4, sequence (P08684 whole entry): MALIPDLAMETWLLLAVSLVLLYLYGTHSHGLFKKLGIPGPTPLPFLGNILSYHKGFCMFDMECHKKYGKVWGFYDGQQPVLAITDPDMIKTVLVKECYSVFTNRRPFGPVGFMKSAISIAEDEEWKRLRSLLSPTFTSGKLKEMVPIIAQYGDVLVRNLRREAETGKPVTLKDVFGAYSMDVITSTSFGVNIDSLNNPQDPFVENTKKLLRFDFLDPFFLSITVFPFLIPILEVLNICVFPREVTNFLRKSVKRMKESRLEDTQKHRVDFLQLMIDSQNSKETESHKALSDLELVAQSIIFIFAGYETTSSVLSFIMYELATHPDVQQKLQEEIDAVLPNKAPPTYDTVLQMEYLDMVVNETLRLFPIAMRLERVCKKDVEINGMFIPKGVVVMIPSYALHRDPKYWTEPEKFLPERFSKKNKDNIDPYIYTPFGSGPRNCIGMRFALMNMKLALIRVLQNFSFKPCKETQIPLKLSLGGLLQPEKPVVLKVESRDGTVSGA
Description: (§1) The inhibition assays for human cytochrome P450 (CYP) enzyme activities were performed in multiwall plates using CYP2C9 and CYP3A4 screening kits (Invitrogen Co., Carlsbad, CA, USA) according to the manufacturer’s instruction. The test compounds Ketoconazole (a positive inhibition control for CYP3A4) or Sulfaphenazole (a positive inhibition control for CYP2C9) were mixed with each master pre-mix comprising CYP2C9 or CYP3A4 BACULOSOMES® reagent and the regeneration system, which contained glucose-6-phosphate and glucose-6-phosphate dehydrogenase. The mixture was incubated at room temperature for 20 min. Following incubation, a CYP enzyme-specific substrate (Vivid BOMCC) and NADP^+ were added and the mixture was incubated at room temperature for 30 min. The reaction was stopped by the addition of a Stop Reagent (CYP450 isozyme specific inhibitors). CYP activity was evaluated by measuring the fluorescence of the fluorescent metabolite generated from each CYP enzyme-specific substrate. The fluorescence was measured using a fluorescent plate reader at 409 nm (excitation) and 460 nm (emission). All experiments were performed in duplicate, and the results are expressed as percent inhibition.

CYP2C9 = CYP2C9 (Homo sapiens, UniProt P11712); experiment: in vitro
CYP2C9, sequence (P11712 whole entry): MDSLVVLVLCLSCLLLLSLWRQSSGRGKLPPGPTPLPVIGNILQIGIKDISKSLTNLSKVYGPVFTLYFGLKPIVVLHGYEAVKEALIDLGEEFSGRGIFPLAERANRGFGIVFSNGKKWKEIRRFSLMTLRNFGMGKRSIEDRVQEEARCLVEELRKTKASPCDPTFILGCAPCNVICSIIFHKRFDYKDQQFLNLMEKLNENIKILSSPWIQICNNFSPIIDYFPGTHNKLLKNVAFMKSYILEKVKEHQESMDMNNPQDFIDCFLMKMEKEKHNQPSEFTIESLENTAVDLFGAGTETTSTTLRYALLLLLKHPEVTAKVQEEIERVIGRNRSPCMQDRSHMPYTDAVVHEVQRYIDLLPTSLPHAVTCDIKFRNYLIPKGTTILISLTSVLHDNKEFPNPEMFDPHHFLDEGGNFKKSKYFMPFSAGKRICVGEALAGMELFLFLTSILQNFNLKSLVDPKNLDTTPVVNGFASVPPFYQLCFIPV
Description: as §1

adherent gastric mucus = experiment: Measurement of adherent gastric mucus (alcian blue) in HCl/ethanol-treated rats; format: in vivo, Sprague-Dawley (S.D.) rats; settings: 20 mg/kg body weight oral, 1 h before HCl/ethanol, mean ± SEM n = 6
Description: The male S.D. rats were fasted for 24 h prior to oral dosing with normal saline, rebamipide, or test compounds at a dose of 20 mg/kg body weight. One hour after the treatments, all animals orally received 0.5 mL of a mixture of 0.15 M HCl and 60% ethanol solution. Animals were sacrificed by cervical dislocation 3 h after the administration of HCl/ethanol solution, the stomach was removed, and parts of the stomach mucosa were rinsed with ice-cold 0.25 M sucrose. Measurement of adherent gastric mucosal mucus was assayed using alcian blue, a dye which stains acid mucosubstances, as previously described. In brief, a 100 mm^2 portion of the glandular region of the stomach was excised with a scalpel, and soaked in 0.1% alcian blue dissolved in 0.16 M of sucrose buffered with 0.05 M sodium acetate (pH 5.8) for 2 h. The unbound dye was removed using two successive washes with 0.25 M sucrose. The dye complex with mucus was extracted using 30% docusate sodium salt for 2 h. After centrifugation at 2600× g for 10 min, the optical density of the alcian blue solution was measured at 620 nm and calculated using the calibration curve. The adherent gastric mucosal mucus was expressed as the amount of the alcian blue (μg/g tissue).

ICR mice = experiment: Acute oral toxicity in mice; format: in vivo; settings: for Mortality / Relative Organ Weight, Heart / Relative Organ Weight, Kidney / Relative Organ Weight, Liver / Relative Organ Weight, Lung / Relative Organ Weight, Spleen / alteration in body weight vs vehicle control (in words): single oral 1000 mg/kg, 14 days; for Mortality: deaths/animals; for Relative Organ Weight, Heart / Relative Organ Weight, Kidney / Relative Organ Weight, Liver / Relative Organ Weight, Lung / Relative Organ Weight, Spleen: mean ± SEM n = 10; for LD50: oral, Probit method; for alteration in body weight vs vehicle control (in words): male and female ICR mice; for acute toxicity (in words): single oral administration 1000 mg/kg body weight, ICR mice
Description: Acute toxicity studies were performed both in male and female ICR mice as described previously. Vehicle control and test compound treated groups consisted of 10 animals each. Mice were acclimatized for 7 days before experimentation. Before dosing with test compounds, animals were fasted for 24 h with access to adequate drinking water in cases with wire mesh bottoms, to prevent coprophagy. The treated group received test compounds, and the control group received saline by gavage at a dose of 1000 mg/kg body weight. […] The mortality, body measurements, and behavior were assessed and recorded daily for 14 days after treatment. The macroscopic analyses and weight of vital organs, such as the liver, kidney, spleen, lung, and heart were compared between the animals treated with test compounds and vehicle.

[3] = single oral dose 40 mg/kg body weight, S.D. rats

Compound: COc1cc2oc(=O)ccc2c(OC)c1OC [Compound 2, 5,6,7-Trimethoxycoumarin]
ED50 [1]: 3.94 mg/kg
protection rate (gastric lesion) [1, 3]: 90.0%
gastroprotective activity (in words) [2]: effectively inhibited
GU reversal [2]: over 90%
Adherent Mucus (adherent gastric mucus): 1424 ± 83 μg alcian blue/g tissue
Mortality (ICR mice; female mice): 0/10
Relative Organ Weight, Heart (ICR mice; female mice): 0.47 ± 0.05 % body weight
Relative Organ Weight, Kidney (ICR mice; female mice): 1.22 ± 0.09 % body weight
Relative Organ Weight, Liver (ICR mice; female mice): 4.21 ± 0.64 % body weight
Relative Organ Weight, Lung (ICR mice; female mice): 0.69 ± 0.07 % body weight
Relative Organ Weight, Spleen (ICR mice; female mice): 0.45 ± 0.09 % body weight
Mortality (ICR mice; male mice): 0/10
Relative Organ Weight, Heart (ICR mice; male mice): 0.46 ± 0.07 % body weight
Relative Organ Weight, Kidney (ICR mice; male mice): 1.56 ± 0.05 % body weight
Relative Organ Weight, Liver (ICR mice; male mice): 5.84 ± 0.23 % body weight
Relative Organ Weight, Lung (ICR mice; male mice): 0.68 ± 0.05 % body weight
Relative Organ Weight, Spleen (ICR mice; male mice): 0.36 ± 0.08 % body weight
LD50 (ICR mice; female ICR mice): 3857 mg/kg body weight
LD50 (ICR mice; male ICR mice): 3812 mg/kg body weight
alteration in body weight vs vehicle control (in words) (ICR mice): no significant alteration
acute toxicity (in words) (ICR mice): no toxicity
inhibition at 30 min, 10 µM (CYP3A4): 19.1%
inhibition at 30 min, 10 µM (CYP2C9; recombinant CYP2C9 BACULOSOMES, probe Vivid BOMCC): 0%

Compound: COc1cc2ccc(=O)oc2c(OC)c1OC [Compound 3, 6,7,8-trimethoxycoumarin]
ED50 [1]: 2.93 mg/kg
protection rate (gastric lesion) [1, 3]: 95.8%
gastroprotective activity (in words) [2]: effectively inhibited
GU reversal [2]: over 90%
Adherent Mucus (adherent gastric mucus): 1876 ± 51 μg alcian blue/g tissue
Mortality (ICR mice; female mice): 0/10
Relative Organ Weight, Heart (ICR mice; female mice): 0.54 ± 0.05 % body weight
Relative Organ Weight, Kidney (ICR mice; female mice): 1.34 ± 0.05 % body weight
Relative Organ Weight, Liver (ICR mice; female mice): 6.86 ± 0.78 % body weight
Relative Organ Weight, Lung (ICR mice; female mice): 0.79 ± 0.06 % body weight
Relative Organ Weight, Spleen (ICR mice; female mice): 0.48 ± 0.10 % body weight
Mortality (ICR mice; male mice): 0/10
Relative Organ Weight, Heart (ICR mice; male mice): 0.50 ± 0.02 % body weight
Relative Organ Weight, Kidney (ICR mice; male mice): 1.58 ± 0.06 % body weight
Relative Organ Weight, Liver (ICR mice; male mice): 4.92 ± 0.24 % body weight
Relative Organ Weight, Lung (ICR mice; male mice): 0.69 ± 0.06 % body weight
Relative Organ Weight, Spleen (ICR mice; male mice): 0.40 ± 0.07 % body weight
LD50 (ICR mice; female ICR mice): 3500 mg/kg body weight
LD50 (ICR mice; male ICR mice): 2111 mg/kg body weight
alteration in body weight vs vehicle control (in words) (ICR mice): no significant alteration
acute toxicity (in words) (ICR mice): no toxicity
inhibition at 30 min, 10 µM (CYP3A4): 15.8%
inhibition at 30 min, 10 µM (CYP2C9; recombinant enzyme): 0%

Compound: COC1Oc2cc3ccc(=O)oc3cc2O1 (stereo not shown) [Compound 7, 6,7-(1-Methoxy)methylenedioxycoumarin]
melting point: 205 to 206 °C

Compound: CC(=O)N1CCN(c2ccc(OCC3COC(Cn4ccnc4)(c4ccc(Cl)cc4Cl)O3)cc2)CC1 (stereo not shown) [Ketoconazole, reference compound]
inhibition at 30 min, 20 µM (CYP3A4): 97.5%
inhibition at 30 min, 20 µM (CYP2C9; recombinant enzyme): 0%

Compound: O=C(NC(Cc1cc(=O)[nH]c2ccccc12)C(=O)O)c1ccc(Cl)cc1 (stereo not shown) [Rebamipide, reference compound]
ED50 [1]: 9.53 mg/kg
protection rate (gastric lesion) [1, 3]: 57.8%
Adherent Mucus (adherent gastric mucus): 1584 ± 80 μg alcian blue/g tissue

Compound: Nc1ccc(S(=O)(=O)Nc2ccnn2-c2ccccc2)cc1 [Sulfaphenazole, reference compound]
inhibition at 30 min, 20 µM (CYP3A4): 0%
inhibition at 30 min, 20 µM (CYP2C9; recombinant enzyme): 93.4%

Now from value to compound, other results behind:

inhibition at 30 min, 10 µM (CYP3A4): 32.7%
inhibition at 30 min, 10 µM (CYP2C9; recombinant enzyme): 0%
Compound: COc1cc2ccc(=O)oc2cc1OC [Compound 1, 6,7-dimethoxycoumarin]
ED50 [1]: 4.21 mg/kg
gastroprotective activity (in words) [1, 3]: significantly protected
gastroprotective activity (in words) [2]: effectively inhibited

melting point: 220 to 221 °C
Compound: COc1cc2ccc(=O)oc2c2c1OCO2 [Compound 4, 6-methoxy-7,8-methylenedioxycoumarin]
protection rate (gastric lesion) [1, 3]: 93.1%
gastroprotective activity (in words) [2]: equipotent gastroprotective activity that of rebamipide

melting point: 202 to 203 °C
Compound: COc1cc2ccc(=O)oc2c2c1OC(OC)O2 (stereo not shown) [Compound 5, 6-Methoxy-7,8-(1-methoxy)methylenedioxycoumarin]

melting point: 230 to 231 °C
Compound: O=c1ccc2cc3c(cc2o1)OCO3 [Compound 6, 6,7-Methylenedioxycomarin]
